Measurements from patent US9856225B2, “Substituted phenazines as antimicrobial agents” (University of Florida Research Foundation, Incorporated, priority 2013, dated 2018).
Like-named read-outs stand apart in the source and are kept apart here.

Tests used:
Type in all cases: cell-based
[1] = test system: Staphylococcus aureus (ATCC 25923); assay: MIC broth microdilution (CLSI), Luria Broth; details: for fold more potent than compound 1: from MIC
In short: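 Two-fold serial dilutions (0.10–100 μM, eleven points) in Luria Broth, each well inoculated with 10^5 cells from log-phase culture (OD600 0.5), per CLSI broth microdilution. DMSO vehicle up to 1% v/v as negative control; kanamycin positive control for the staphylococci.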

[2] = test system: Staphylococcus aureus (ATCC 25923) biofilm; assay: Biofilm inhibition, crystal violet staining; parameters: MIC/IC50 Biofilm: unit not given here; details: for Phenotype: planktonic growth vs biofilm formation; for IC50: Staphylococcus aureus, ATCC25923; for MIC/IC50 Biofilm: ratio of MIC to IC50 of biofilm inhibition
Method: Biofilm Inhibition Protocol for S. aureus (ATCC 25923). A serial two-fold dilution of 2× bromophenazine small molecule concentration was made in 100 μL tryptic soy broth (TSB) medium with 0.5% glucose were delivered into 0.1% gelatin (Millipore) coated 96-well tissue culture plates. […] To each well, 100 μL of TSB with 0.5% glucose containing 2×10^6 CFU/mL Staphylococcus aureus cells, prepared from fresh culture (OD600 of 0.8), was added. The plates were incubated at 37° C. for 24 hours. The wells were gently rinsed by submerging the entire plates in a tub of cold, running tap water. The wells were then fixed with 200 μL methanol for 15 minutes. After the plates were air dried, the biofilms were stained with 100 μL of 1% crystal violet for 10 minutes. The plates were again rinsed with running water. After drying in air, quantitative assessment of biofilm formation was obtained by extracting the crystal violet associated with the remaining biofilm with 100 μL per well of the following bleaching solution (methanol:glacial acetic acid:water (v/v/v)=4:1:5). This bleaching solution dissolved the bound crystal violet and produced a violet-colored solution in each well. The intensity of coloration was determined by measuring the absorbance at 540 nm.

[3] = test system: Acinetobacter baumannii (ATCC 19606) pre-formed biofilm; assay: Biofilm dispersion, crystal violet; details: for percent biofilm dispersion at 100 µM: Acinetobacter baumannii, ATCC19606, 24 h
Method: Biofilm Dispersion Protocol for A. baumannii (ATCC 19606): To a 96-well plate was added a volume of 100 μL Mueller-Hinton broth that was inoculated with ˜7×10^6 colony forming units per milliliter (corresponding to an OD600 of 0.01 prepared directly from an overnight culture). Two columns of wells were left blank to serve as our background wells. A lid was placed on the 96-well plate which was wrapped in suran wrap, placed in a humidifying chamber and incubated under static conditions at room temperature for 24 hours to establish bacterial biofilms. Following this initial incubation at room temperature, the media and planktonic bacteria were then removed from 96-well plates and the wells were then washed with water. Fresh medium was then added and series of ten two-fold serial dilutions of text compound were made in the 96-well plate using a multichannel pipette. A lid was then placed on 96-well plate which was then wrapped in suran wrap, placed in a humidifying chamber and incubated under static conditions at 37° C. for 24 hours. Following this second incubation to test compounds against pre-formed biofilms, the media and planktonic bacteria were again removed from 96-well plates and the wells were then washed with water. The bacterial biofilms within the microtiter wells were stained with 200 μL of an aqueous 0.1% crystal violet solution that was allowed to stand for 10-20 minutes. The crystal violet stain was then removed, the wells were rinsed with water and dried. The crystal violet stain that remained on the inside of the wells (i.e., stained bacterial biofilm) on the inside of the wells was solubilized by the addition of 200 μL ethanol and absorbance was read at OD540 using a spectrophotometer. Note: The concentration range tested for each compound was 0.2-100 μM. Single data points for all compounds and DMSO controls were tested in two replicate rows in 96-well plates and corresponding absorbance readings were averaged for the quantification of remaining bacterial biofilms. Reported percent dispersion of biofilms was determined by the comparison of compound treated wells (the average of the two replicate wells) versus vehicle control wells without compound following background subtraction (i.e., an empty, untreated well) and reported from two independent experiments. DMSO was serially diluted at the same concentration as test compounds with a top concentration of 1% v/v.

[4] = Staphylococcus aureus, ATCC25923, Table 2, S. aureus ATCC 25923, Luria Broth, read-out: MIC
[5] = Table 2, S. aureus ATCC 25923, Luria Broth, read-out: MIC
[6] = S. aureus ATCC 25923, single replicate screen, read-out: Biofilm Inhibition IC50
[7] = A. baumannii ATCC 19606, read-out: % Biofilm Dispersion at 100 μM
[8] = Staphylococcus aureus, ATCC25923, Table 1, ATCC 25923, range tested 0.10 to 100 μM, read-out: Staphylococcus aureus MIC
[9] = Staphylococcus aureus, ATCC25923, Table 1, ATCC 25923, read-out: Staphylococcus aureus MIC
[10] = read-out: % Biofilm Dispersion at 100 μM, A. baumannii ATCC 19606
[11] = S. aureus, three independent experiments, read-out: Biofilm inhibition IC50 (triplicate)

| Compound | MIC [1, 4] | MIC [1, 5] | Phenotype ([2]; S. aureus ATCC 25923) | IC50 [2, 6] | MIC/IC50 Biofilm ([2]; S. aureus ATCC 25923) | Biofilm Dispersal Agent? ([3]; A. baumannii ATCC 19606) | percent biofilm dispersion at 100 µM [3, 7] | MIC [1, 8] | MIC [1, 9] | percent biofilm dispersion at 100 µM [3, 10] | IC50 [2, 11] | fold more potent than compound 1 ([1]; Staphylococcus aureus) |
| --- | --- | --- | --- | --- | --- | --- | --- | --- | --- | --- | --- | --- |
| CCC(=O)Oc1c(Br)cc(Br)c2nc3ccccc3nc12 [Compound 4a] | 0.78 to 1.56 µM | 1.56 µM | antibacterial | 920 nM | 1.7 | Yes | 53 to 57% |  |  |  |  |  |
| O=C(Oc1c(Br)cc(Br)c2nc3ccccc3nc12)c1ccccc1 [Compound 23, 2,4-Dibromophenazin-1-yl benzoate] | 1.56 µM |  | antibacterial | 1710 nM | 0.9 | No |  | 1.56 µM | 0.72 µg/mL | -1 ± 6% |  |  |
| Cc1ccc(C(=O)Oc2c(Br)cc(Br)c3nc4ccccc4nc23)cc1 [Compound 18a] | > 100 µM |  |  | 450 nM |  | No | -1 ± 6% |  |  |  | 550 nM |  |
| O=C(Oc1c(Br)cc(Br)c2nc3ccccc3nc12)c1cccc([N+](=O)[O-])c1 [Compound 15a] | 0.78 to 1.56 µM | 1.56 µM | antibacterial | 360 nM | 4.3 | Yes | 36 ± 2% |  |  |  |  |  |
| CC(=O)Oc1c(Br)cc(Br)c2nc3ccccc3nc12 [Compound 21, 2,4-Dibromophenazin-1-yl acetate] | 0.78 to 1.56 µM |  | antibacterial | 420 nM | 2.8 | Yes |  | 0.78 to 1.56 µM | 0.31 to 0.62 µg/mL | 53 to 57% |  | 32 fold |
| O=C(Oc1c(Br)cc(Br)c2nc3ccccc3nc12)c1ccc(Cl)cc1 [Compound 14a] | > 100 µM |  |  | 640 nM |  | No | 7 ± 2% |  |  |  | 770 nM |  |
| O=C(OCCc1ccccc1)Oc1c(Br)cc(Br)c2nc3ccccc3nc12 [Compound 8a] | 0.78 to 1.56 µM | 1.56 µM | antibacterial | 760 nM | 2.1 | Yes | 32 ± 4% |  |  |  |  |  |
| O=C(Oc1c(Br)cc(Br)c2nc3ccccc3nc12)c1ccco1 [Compound 23a] | 0.78 to 1.56 µM | 0.78 µM | antibacterial | 760 nM |  | No | 17 ± 14% |  |  |  |  |  |
| O=C(CCCC(=O)Oc1c(Br)cc(Br)c2nc3ccccc3nc12)Oc1c(Br)cc(Br)c2nc3ccccc3nc12 [Compound 5a] | > 100 µM |  |  | 12100 nM | >8.3 | Yes | 30 ± 3% |  |  |  |  |  |
| O=C(Oc1c(Br)cc(Br)c2nc3ccccc3nc12)c1ccc(Br)cc1 [Compound 12a] | > 100 µM |  |  | 810 nM |  | No | 5 ± 12% |  |  |  | 1130 nM |  |
| O=C(OCC(Cl)(Cl)Cl)Oc1c(Br)cc(Br)c2nc3ccccc3nc12 [Compound 27a] | 0.78 to 1.56 µM | 0.78 µM | antibacterial | 760 nM | 1.0 | Yes | 38 ± 6% |  |  |  |  |  |
| Oc1c(Br)cc(Br)c2nc3ccccc3nc12 [Compound 11, 2,4-Dibromophenazin-1-ol] | 1.56 µM |  | antibacterial | 410 nM |  | Yes |  | 1.56 µM | 0.55 µg/mL | 53 to 57% |  | 32 fold |
| COC(=O)Oc1c(Br)cc(Br)c2nc3ccccc3nc12 [Compound 28a] | 0.78 to 1.56 µM | 1.56 µM | antibacterial | 770 nM | 2.0 | Yes | 53 to 57% |  |  |  |  |  |
